Test results from patent publication US7223776B2, “Compounds with anti-bacterial activity” (priority 2002, dated 2007).
Where two headings read alike, the source gives them in different places.

Assay: Anti-bacterial activity: MHK measured against a panel of bacterial strains
Format: cell-based
Settings: read-out: MHK
Description: The MHK (μg/ml) of those compounds was measured in relation to the following bacterial strains: S. aureus ATCC 29213, S. aureus 16, E. faecalis ATCC 29212, E. faecium vanA E25-1, H. influenzae 11, E. coli ATCC 25922, M. catarrhalis 117, S. pneumoniae ATCC 49619. Examples 5–6, 8, 11–16, 18–26, 30, 44–45, 47–58 have an MHK<=0.125 in relation to at least one of the listed strains.

[1] = in relation to at least one of the listed strains (strain not specified)

SMILES | MIC [1] [µg/mL] | MIC [µg/mL]
COc1ccc2nccc(C(O)CN3CCC[C@@H](CNCc4ccc5nsnc5c4)C3)c2c1 (mixture of isomers) [Example 6, (3S)-2-(3-{[(Benzo[1,2,5]thiadiazol-5-ylmethyl)-amino]-methyl}-piperidin-1-yl)-(1RS)-(6-methoxy-quinolin-4-yl)-ethanol] | ≤ 0.125 | –
COc1ccc2nccc(C(O)CN3CCC[C@@H](CNCc4ccc5c(c4)NC(=O)CO5)C3)c2c1 (mixture of isomers) [Example 5, (3S)-6-[({1-[2-Hydroxy-2-(6-methoxy-quinolin-4-yl)-ethyl]-piperidin-(3RS)-ylmethyl}-amino)-methyl]-4H-benzo[1,4]oxazin-3-one] | ≤ 0.125 | –
COc1ccc2nccc(C(O)CN3CCC[C@@H](CNCc4ccc5c(c4)OCCCO5)C3)c2c1 (mixture of isomers) [Example 7] | ≤ 0.5 | –
COc1ccc2nccc(C(O)CN3CCC[C@@H](CNCc4ccc5c(c4)OCO5)C3)c2c1 (mixture of isomers) [Example 9, 2-((3S)-{[(2,3-Dihydro-benzo[1,3]dioxo-6-ylmethyl)-amino]-methyl}-piperidin-1-yl)-(1RS)-(6-methoxy-quinolin-4-yl)-ethanol] | ≤ 0.5 | –
COc1ccc2nccc(C(O)CN3CCCC(NCc4ccc5c(c4)OCCO5)CC3)c2c1 (racemic) [Example 34] | ≤ 0.5 | –
COc1ccc2nccc(C(O)CN3CCOC(CNCc4ccc5c(c4)OCCO5)C3)c2c1 (racemic) [Example 61, 2-((2RS)-{[(2,3-Dihydro-benzo[1,4]dioxin-6-ylmethyl)-amino]-methyl}-morpholin-4-yl)-(1RS)-(6-methoxy-quinolin-4-yl)-ethanol] | ≤ 0.5 | –
COc1ccc2nccc([C@@H](O)CN3CCC[C@@H](CNCc4ccc5c(c4)OCCO5)C3)c2c1 [Example 8, 2-((3S)-{[(2,3-Dihydro-benzo[1,4]dioxin-6-ylmethyl)-amino]-methyl}-piperidin-1-yl)-(1S)-(6-methoxy-quinolin-4-yl)-ethanol] | – | ≤ 0.125
COc1ccc2ncnc(CCC3(O)CCC(NCc4ccc5c(c4)OCO5)CC3)c2c1 (stereo not shown) [Example 10, 4-[(Benzo[1.3]dioxol-5-ylmethyl)-amino]-1-[2-(6-methoxy-quinazolin-4-yl)-ethyl]-cyclohexanol] | – | ≤ 0.5
CCOc1ccc2nccc(CCC3(O)CCC(NCc4ccc5c(c4)OCO5)CC3)c2c1 (stereo not shown) [Example 17] | – | ≤ 0.5
COc1ccc2nccc(CCC3CCC(NCc4ccc5c(c4)NC(=O)CO5)CC3)c2c1 (stereo not shown) [Example 30, 6-({4-[2-(6-Methoxy-quinolin-4-yl)-ethyl]-cyclohexylamino}-methyl)-4H-benzo[1,4]oxazin-3-one] | ≤ 0.125 | –
COc1ccc2ncnc(OCC3CCC(NCc4ccc5c(c4)OCCO5)CC3)c2c1 (stereo not shown) [Example 42, (2,3-Dihydro-benzo[1,4]dioxin-6-ylmethyl)-[4-(6-methoxy-quinazolin-4-yloxymethyl)-cyclohexyl]-amine] | ≤ 0.5 | –
COc1ccc2ncnc(OCC3CCC(NCc4cnc5ccccc5n4)CC3)c2c1 (stereo not shown) [Example 43, [4-(6-Methoxy-quinazolin-4-yloxymethyl)-cyclohexyl]-quinoxalin-2-ylmethyl-amine] | ≤ 0.5 | –
COc1ccc2ncnc(OCC3CCC(NCc4ccc5c(c4)NC(=O)CO5)CC3)c2c1 (stereo not shown) [Example 44, 6-{[4-(6-Methoxy-quinazolin-4-yloxymethyl)-cyclohexylamino]-methyl}-4H-benzo[1,4]oxazin-3-one] | ≤ 0.125 | –
COc1ccc2ncnc(OCC3CCC(NC/C=C/c4ccccc4)CC3)c2c1 (stereo not shown) [Example 45, [4-(6-Methoxy-quinazolin-4-yloxymethyl)-cyclohexyl]-(3-phenyl-allyl)-amine] | ≤ 0.125 | –
COc1ccc2ncnc(OCC3CCC(NCC(=O)Nc4ccccn4)CC3)c2c1 (stereo not shown) [Example 46, 2-[4-(6-Methoxy-quinazolin-4-yloxymethyl)-cyclohexylamino]-N-pyridin-2-yl-acetamide] | ≤ 0.5 | –
COc1ccc2nccc(C(O)CN3CCC=C(CNCc4ccc5c(c4)OCCO5)C3)c2c1 (stereo not shown) [Example 59, 2-(5-{[(2,3-Dihydro-benzo[1,4]dioxin-6-ylmethyl)-amino]-methyl}-3,6-dihydro-2H-pyridin-1-yl)-1-(6-methoxy-quinolin-4-yl)-ethanol] | ≤ 0.5 | –
